Here are results for two molecules from patent publication US11690818B2, “Drug containing liver targeting specific ligand and thyroid hormone receptor agonist” (priority 2018, dated 2023).

The structures appear in SMILES notation.

For data set [1], the system named is db/db mice. The experiment in a line: Example 4: serum TC, LDL and TG in db/db mice. The class given is in vivo. The settings on record: subcutaneous injection daily for 21 days, Kylo-0100 13.5, Kylo-0101 48.4, Kylo-0102 43.3, Kylo-0103 43.3 μg/kg, vs saline control group. How it is done:
(§1) The mice needed to adapt to the environment before the experiment, and healthy mice were selected as test animals, and reared in IVC cages at a density of 5 animals/cage with the litter being changed twice a week.
The body weight was weighed twice a week, and the administration was carried out continuously for 21 days. After the last administration, the mice were fasted overnight for 15-16 hours, sacrificed by CO2 anesthesia. The blood was collected by cardiac puncture, left to stand at room temperature for 2 hours, and centrifuged on a low temperature centrifuge at 3000 RPM for 10 minutes to collect serum, which was then stored in a −80° C. refrigerator for later use. The contents of total cholesterol (TC), low-density lipoprotein (LDL) and triglyceride (TG) in the serum were measured on a blood biochemical analyzer.

Data set [2] relates to db/db mice. The experiment in a line: Example 4: bone mineral density and body weight of db/db mice. Type of data set: in vivo. To be noted: Kylo-0100 13.5, Kylo-0101 48.4 μg/kg sc daily. How it is done:
as §1
The body weight was weighed twice a week, and the administration was carried out continuously for 21 days. […] The blood was collected by cardiac puncture, left to stand at room temperature for 2 hours, and centrifuged on a low temperature centrifuge at 3000 RPM for 10 minutes to collect serum, which was then stored in a −80° C. refrigerator for later use. The contents of total cholesterol (TC), low-density lipoprotein (LDL) and triglyceride (TG) in the serum were measured on a blood biochemical analyzer.
On the 18th day of the administration, the mice were intraperitoneally injected with the anesthetic (xylazine combined with ketamine, 10 ml/Kg, IP), and the bone mineral density and body fat ratio of the mice were measured on a bone density meter.

As for `N[C@@H](Cc1cc(I)c(Oc2ccc(O)c(I)c2)c(I)c1)C(=O)O` [Kylo-0100, triiodothyronine], in data set [1], the “serum TC level reduction rate” value is given as 34.68% and the “serum TG level reduction rate” value was found to be 42.55%. Besides, in data set [2] (18th day of administration, vs saline control group), the “bone mineral density (BMD)” value is “significantly lower than that of the saline control group”. Besides, the “effect on the body weight of mice” value in data set [2] (21 days) was “significant effect”.

Take `CC(=O)NC1C(OCCCCC(=O)NCCCNC(=O)CCOCC(COCCC(=O)NCCCNC(=O)CCCCOC2OC(CO)C(O)C(O)C2NC(C)=O)(COCCC(=O)NCCCNC(=O)CCCCOC2OC(CO)C(O)C(O)C2NC(C)=O)NC(=O)CCCCCNC(=O)[C@H](Cc2cc(I)c(Oc3ccc(O)c(I)c3)c(I)c2)NC(=O)OC(C)(C)C)OC(CO)C(O)C1O` (stereo partly shown) [Kylo-0103]: in data set [1], the “serum LDL level reduction rate” value is 15.25%, the “serum TC level reduction rate” value came to 44.37% and the “serum TG level reduction rate” value is listed as 43.94%.
